The values below come from ChEMBL document CHEMBL3611975, “New carbocyclic N(6)-substituted adenine and pyrimidine nucleoside analogues with a bicyclo[2.2.1]heptane fragment as sugar moiety; synthesis, antiviral, anticancer activity and X-ray crystallography” (Bioorg Med Chem, 2015).

A short description of data set [1]: Cytotoxicity against MDCK cells assessed as cell viability after 48 hrs by MTT assay. The conditions noted are these: dog, read-out: CTD50. Type of data set: cell-based, Canis lupus familiaris.
A further data set deals with Influenza A virus. As to the kind of experiment: Antiviral activity against Influenza A virus (A/Puerto Rico/8/1934(H1N1)) infected in MDCK cells assessed as decrease in virus titer after 48 hrs by MTT assay. Type of data set: functional, organism-based.
The nature of data set [2]: Selectivity index, ratio of CTD50 for MDCK cells to EC50 for Influenza A virus (A/Puerto Rico/8/1934(H1N1)). In kind it is toxicity, cell-based. The following applies: dog.
Data set [3] in a line: Cytotoxicity against African green monkey Vero cells assessed as cell viability after 72 hrs by MTT assay. Type of data set: cell-based. The conditions noted are these: chlorocebus sabaeus, read-out: CTD50.
Another data set has as its system A549. Briefly: Cytotoxicity against human A549 cells assessed as growth at 10^-5 M relative to control.
A further data set deals with UO-31. Briefly: Cytotoxicity against human UO31 cells assessed as growth at 10^-5 M relative to control.
The test system of another data set is MOLT-4. As to the kind of experiment: Cytotoxicity against human MOLT4 cells assessed as growth at 10^-5 M relative to control.
The subject of a further data set is HT-29. Briefly: Cytotoxicity against human HT-29 cells assessed as growth at 10^-5 M relative to control.
Another data set has as its system SNB-19. As to the kind of experiment: Cytotoxicity against human SNB19 cells assessed as growth at 10^-5 M relative to control.
The subject of another data set is SNB-75. Briefly: Cytotoxicity against human SNB75 cells assessed as growth at 10^-5 M relative to control.
Another data set relates to 786-0. As to the kind of experiment: Cytotoxicity against human 786-0 cells assessed as growth at 10^-5 M relative to control.
The next data set has as its system SN12C. Briefly: Cytotoxicity against human SN12C cells assessed as growth at 10^-5 M relative to control.
The next data set relates to HCT-116. As to the kind of experiment: Cytotoxicity against human HCT116 cells assessed as growth at 10^-5 M relative to control.
Another data set relates to OVCAR-3. Briefly: Cytotoxicity against human OVCAR3 cells assessed as growth at 10^-5 M relative to control.
The subject of the next data set is RXF 393. As to the kind of experiment: Cytotoxicity against human RXF393 cells assessed as growth at 10^-5 M relative to control.
A further data set concerns NCI-H23. Briefly: Cytotoxicity against human NCI-H23 cells assessed as growth at 10^-5 M relative to control.
A further data set relates to NCI-H460. As to the kind of experiment: Cytotoxicity against human NCI-H460 cells assessed as growth at 10^-5 M relative to control.
For a further data set, the system named is MDA-MB-435. As to the kind of experiment: Cytotoxicity against human MDA-MB-435 cells assessed as growth at 10^-5 M relative to control.
In the next data set the test system is MDA-MB-231. As to the kind of experiment: Cytotoxicity against human MDA-MB-231 cells assessed as growth at 10^-5 M relative to control.
A short description of data set [4]: Cytotoxicity against human EKVX cells assessed as growth at 10^-5 M relative to control.
In another data set the test system is SF-295. Briefly: Cytotoxicity against human SF295 cells assessed as growth at 10^-5 M relative to control.
Data set [5] is described as follows: Cytotoxicity against human Hs578T cells assessed as growth at 10^-5 M relative to control. The following applies: Hs-578T.
The subject of another data set is NCI-H226. Briefly: Cytotoxicity against human NCI-H226 cells assessed as growth at 10^-5 M relative to control.
The test system of another data set is NCI-H522. As to the kind of experiment: Cytotoxicity against human NCI-H522 cells assessed as growth at 10^-5 M relative to control.

Take `OC[C@H]1[C@@H]2C[C@H](n3cnc4c(NCCc5ccccc5)ncnc43)[C@H]1C[C@@H]2Cl`: the CC50 at 48 h in data set [1] was determined as 143 µM. In addition, the 50% effective concentration (EC50) with Influenza A virus is 15 µM. For the same compound, the selectivity ratio in data set [2] turned out to be 10. The CC50 at 72 h in [3] worked out at 14 µM. Also, the growth, % of control at 10 µM came to 92.6% in the data set on A549; 73.8% in the data set with UO-31; 83.3% in the data set on MOLT-4; 95.3% in the data set with HT-29; 107% in the data set with SNB-19; 106% in the data set with SNB-75. For the same compound, the growth, % of control at 10 µM in the data set with 786-0 amounted to 97%; in the data set on SN12C, 99.9%; in the data set with HCT-116 it was 101%; with OVCAR-3 it was 110%; in the data set on RXF 393, 87%; in the data set on NCI-H23, 93.2%. In addition, the growth, % of control at 10 µM is 108% in the data set with NCI-H460, 99.7% in the data set on MDA-MB-435 and 104% in the data set on MDA-MB-231.

For `COc1ccc(CCNc2ncnc3c2ncn3[C@H]2C[C@H]3[C@H](CO)[C@@H]2C[C@@H]3Cl)cc1`, the CC50 at 48 h in data set [1] came to 350 µM. For the same compound, in the data set with Influenza A virus, the EC50 turned out to be 16 µM. The selectivity ratio in data set [2] is 22. For the same compound, the CC50 at 72 h in [3] came to 14 µM. Moreover, the growth, % of control at 10 µM stood at 83.3% in the data set with A549; 100% in [4]; 81% in the data set with UO-31; 103% in the data set on MOLT-4; 87.9% in the data set on HT-29; 104% in the data set with SF-295. The growth, % of control at 10 µM in the data set with SNB-19 came out at 107%; in the data set with SNB-75, 92.8%; in the data set on 786-0, 101%; in the data set on SN12C it was 102%; in the data set on HCT-116, 100%; in the data set on OVCAR-3, 111%. Besides, the growth, % of control at 10 µM turned out to be 104% in the data set on RXF 393; 93.6% in data set [5]; 102% in the data set on NCI-H23; 102% in the data set with NCI-H226; 106% in the data set with NCI-H460; 56.7% with NCI-H522. Moreover, the growth, % of control at 10 µM with MDA-MB-435 is 114%; in the data set with MDA-MB-231, 100%.

On to `CCOc1ncnc2c1ncn2[C@H]1C[C@H]2[C@H](CO)[C@@H]1C[C@@H]2Cl`, for which, in data set [1], the CC50 at 48 h is more than 1020 µM. For the same compound, the EC50 in the data set on Influenza A virus was 225 µM. Besides, the selectivity ratio in [2] was more than 5. Further, in [3], the CC50 at 72 h is 208 µM. The growth, % of control at 10 µM was found to be 99% in the data set on A549; 95.8% in data set [4]; 88.1% in the data set on UO-31; 111% in the data set with MOLT-4; 96.5% in the data set on HT-29; 108% with SF-295. Also, the growth, % of control at 10 µM worked out at 115% in the data set on SNB-19; 83.1% in the data set with SNB-75; 108% in the data set with 786-0; 108% in the data set on SN12C; 105% with HCT-116; 111% in the data set on OVCAR-3. Moreover, the growth, % of control at 10 µM in the data set with RXF 393 worked out at 106%; in data set [5], 108%; in the data set with NCI-H23, 87.9%; in the data set on NCI-H226, 94.5%; in the data set on NCI-H460, 108%; with NCI-H522, 92.4%. Also, the growth, % of control at 10 µM in the data set with MDA-MB-435 stood at 106%; in the data set on MDA-MB-231, 97.9%.
